{"source": "patent US20070060605A1", "about": "“Compositions and methods for inhibiting platelet activation and thrombosis” (priority 2001, published 2007)", "key": {"[1]": {"tested_on": "platelet accumulation into thrombus", "format": "in vivo", "source_text": "A preferred animal model involves intravital microscopy of laser-induced thrombi. The method is described by Rosen et al., 2001, Am J Pathol 158, 1613-1622, which is incorporated herein by reference. Minor variations of that method were employed as described below.\nExperimental mice are pre-anesthetized and surgically prepared. A tracheal tube is placed to facilitate breathing and the jugular vein is canulated to allow for maintenance of anesthetic and introduction of compound. The cremaster muscle is then exteriorized. The muscle is affixed over a glass slide, allowing illumination from below. A steady drip of a sodium-bicarbonate buffered salt solution is maintained throughout the experiment to keep the exposed muscle moist. Blood flow in the muscle is visualized using a 40× water immersion lens and epi-illuminated with an appropriately filtered light source. Alexa 488-labeled anti-mouse CD41 antibody is injected through the jugular canulus to label platelets in vivo.\nThrombosis is initiated by damaging the vessel wall (of a 30 μm vessel) with a laser pulse from a MicroPoint LASER attached to the microscope. A LASER pulse is delivered, causing damage in an area smaller than 1 μm. The recruitment of platelets to the thrombus is then monitored by the accumulation of (activated) Alexa 488-labeled platelets at the ablation site using fluorescence microscopy, and the process is recorded digitally. The method thus permits in vivo analysis of platelet activation as measured by platelet aggregation and thrombosis.\nThe degree of embolization in an untreated mouse can be quantified using software for image analysis, e.g., BioQuant True Color Windows (Biometrics, Nashville, Tenn.), as described in Rosen et al., 2001, supra. The software package permits the determination of the “integrated optical density” or IOD of the thrombus.\nUsing quantitative intravital fluorescence videomicroscopy with high temporal resolution (111 images/second), the effect of PDE3 inhibition on the platelet recruitment into thrombi was directly observed over time. Platelets were fluorescently labeled by infusing rat-anti-mouse CD41 and Alexa 488-anti-rat IgG through a cannulated jugular vein. The cremaster microvasculature was exposed and mapped and suitable arteriole segments were selected for laser-induced injury. A series of control injuries were generated prior to infusion of the inhibitory compound. The power and the number of laser pulses required to generate each thrombus was recorded. Platelet accumulation to the thrombi following laser ablation was recorded using digital videomicroscopy. The thrombus total fluorescence in each frame of the videos was analyzed using Slidebook software for digital videomicroscopy. The pyridazinone compound was then infused. Following a 15 minute incubation, a series of experimental injuries were generated 250 μm proximal, with relationship to blood flow, of the first injury and the resultant thrombi were recorded. The power and the number of pulses required to induce the control thrombus was used to induce the experimental thrombus. The control and experimental thrombi constituting a pair were compared for statistical analysis. The total fluorescence intensity of the thrombi before and after the infusion of pyridazinone compound was recorded.\nImages from a representative experiment of the recruitment of fluorescently-labeled […] platelets into a growing thrombus over time is shown in FIG. 9A."}, "platelets": {"tested_on": "platelets", "experiment": "F-actin assembly (FITC-phalloidin, flow cytometry)", "format": "cell-based, human", "details": "agonist SFLLR", "source_text": "To determine whether or not the effects of the pyridazinone compound were limited to inhibition of alpha-granule secretion, the ability of the compound to inhibit F-actin assembly and αIIbβ3 activation was examined. F-actin assembly was detected using FITC-phalloidin and quantified by flow cytometry (Winokur et al., 1995, Blood 85, 1796-804; Oda et al., 1992, Blood 79, 920-7)."}, "[2]": {"tested_on": "PGE1-induced cAMP levels in platelets", "experiment": "Augmentation of PGE1-induced cAMP levels in platelets", "format": "cell-based, human", "details": "no single concentration", "description": "One frequent target of anti-platelet agents is phosphodiesterase III (PDE III). […] The assay is performed as described by Liao et al., 1998, Eur J Pharmacol 349,107-114, incorporated herein by reference. Briefly, aliquots of PRP are exposed to increasing concentrations of the agent for 20 minutes. The PRP is then challenged with 1 μM PGE1 for 2 min The reaction is stopped by adding 10 mM EDTA, followed immediately by boiling for 2 min. The mixture is cooled to 4° C. and the precipitated protein is pelleted. cAMP content in the supernatant is quantitated using an enzyme immunoassay kit (Pharmacia-Amersham, N.J.) according to the instructions of the manufacturer.\nIn order to assess whether the compounds useful according to the invention might act through inhibition phosphodiesterase III, each was tested for its effect on PGE1-induced cAMP increase. Determination of platelet cAMP levels was performed as described by Liao et al., 1998, supra. Aliquots of PRP were exposed to increasing concentrations of the indicated compounds for 20 min. PRP was then challenged with 1 μM PGE1 for 2 min. The reaction was stopped with the addition of 10 mM EDTA followed immediately by boiling for 2 min. The mixture was then cooled to 4° C. and the precipitated protein was pelleted. Cyclic AMP content in the supernatant was then quantified using an enzyme immunoassay kit (Pharmacia-Amersham, N.J.) according to the instructions of the manufacturer."}, "recombinant human PDE2": {"target": "recombinant human PDE2 (Homo sapiens, UniProt O00408)", "sequence (O00408 whole entry)": "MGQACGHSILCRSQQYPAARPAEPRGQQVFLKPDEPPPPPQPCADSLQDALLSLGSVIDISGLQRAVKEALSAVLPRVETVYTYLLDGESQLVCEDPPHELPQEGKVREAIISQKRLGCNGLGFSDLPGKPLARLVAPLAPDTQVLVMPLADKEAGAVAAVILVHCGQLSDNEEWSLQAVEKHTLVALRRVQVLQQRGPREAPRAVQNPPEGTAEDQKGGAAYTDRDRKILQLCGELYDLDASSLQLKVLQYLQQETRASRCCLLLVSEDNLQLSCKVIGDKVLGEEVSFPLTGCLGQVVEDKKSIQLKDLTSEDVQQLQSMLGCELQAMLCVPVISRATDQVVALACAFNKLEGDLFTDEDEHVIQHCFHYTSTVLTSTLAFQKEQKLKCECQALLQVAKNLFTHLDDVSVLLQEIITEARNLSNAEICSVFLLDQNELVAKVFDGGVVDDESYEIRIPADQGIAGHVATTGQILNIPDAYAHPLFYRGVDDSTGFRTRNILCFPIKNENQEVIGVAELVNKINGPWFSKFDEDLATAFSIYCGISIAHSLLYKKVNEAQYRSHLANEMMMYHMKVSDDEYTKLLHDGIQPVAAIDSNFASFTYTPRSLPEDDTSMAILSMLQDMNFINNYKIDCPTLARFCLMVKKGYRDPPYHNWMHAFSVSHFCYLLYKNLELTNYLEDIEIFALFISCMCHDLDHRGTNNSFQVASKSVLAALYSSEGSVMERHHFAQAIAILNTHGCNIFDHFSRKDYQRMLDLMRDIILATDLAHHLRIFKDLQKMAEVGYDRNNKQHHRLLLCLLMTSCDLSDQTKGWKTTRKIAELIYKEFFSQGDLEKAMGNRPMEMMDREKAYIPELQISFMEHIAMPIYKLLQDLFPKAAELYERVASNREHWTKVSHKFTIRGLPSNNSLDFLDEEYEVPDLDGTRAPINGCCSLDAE", "experiment": "Phosphodiesterase inhibition, PDE2", "format": "biochemical", "details": "up to 1 μM", "description": "Intracellular cAMP generated by adenylyl cyclase in platelets is actively hydrolyzed by phosphodiesterase. […] Human platelets express PDE2, PDE3, and PDE5. Therefore, the compound was tested for its inhibitory effect on these phosphodiesterases using methods as described in Example 3."}, "[3]": {"details": "listed as Pyridazinone compound"}}, "note": "Like-named read-outs stand apart in the source and are kept apart here.", "data": [{"smiles": "CCCCCn1c2c(c(=N)c3ccccc31)CCC2", "note": "[JF081204{5C}]", "values": [{"measurement": "Time for thrombus to achieve 50% maximum platelet accumulation / onset of platelet accumulation", "setting": "[1]; 1 mg/kg (P<0.001), 3 mg/kg (P<0.05), 6 mg/kg (P<0.001)", "value": "statistically significant delay"}, {"measurement": "Platelet accumulation over stages of thrombus formation", "setting": "[1]; 1 mg/kg, 3 mg/kg, and 6 mg/kg", "value": "inhibited at all stages"}, {"measurement": "Median of maximum platelet accumulation compared to absence of compound", "setting": "[1]; 3 mg/kg (P<0.002) and 6 mg/kg (P<0.02)", "value": "statistically significant decrease"}, {"measurement": "Median stabilized platelet accumulation", "setting": "[1]; 3 mg/kg (P<0.01) and 6 mg/kg (P<0.001)", "value": "dose-dependent inhibition"}, {"measurement": "Inhibition of maximum platelet accumulation", "setting": "[1]; dose-dependent, 1-6 mg/kg", "value": "up to 80%"}, {"measurement": "Inhibition of stabilized platelet accumulation", "setting": "[1]; dose-dependent, 5 minutes following laser injury", "value": "up to 75%"}]}, {"smiles": "CC1CC(=O)NN=C1c1ccc(N)c([N+](=O)[O-])c1", "note": "(stereo not drawn) [6-(4-Amino-3-nitro-phenyl)-5-methyl-4,5-dihydro-2H-pyridazin-3-one]", "values": [{"measurement": "SFLLR-induced F-actin assembly / cytoskeleton rearrangement", "setting": "platelets", "value": "interferes"}, {"measurement": "Effect on PGE1-stimulated cAMP levels in platelets", "setting": "[2]", "value": "augments"}, {"measurement": "Effect on PGE1-stimulated cAMP levels in platelets", "setting": "[2]; [3]", "value": "augment"}, {"measurement": "Inhibition of maximal rate of platelet recruitment", "setting": "[1]; 0.3 mg/kg", "value": 37, "unit": "%"}, {"measurement": "Median Stabilized/Maximum platelet accumulation", "setting": "[1]; 0.3 mg/kg", "value": 36, "unit": "%"}, {"measurement": "Inhibition of maximum platelet accumulation", "setting": "[1]; 0.6 mg/kg", "value": 61, "unit": "%"}, {"measurement": "Median Stabilized/Maximum platelet accumulation", "setting": "[1]; 0.6 mg/kg", "value": 41, "unit": "%"}, {"measurement": "Stabilized platelet accumulation", "setting": "[1]; 0.6 mg/kg (P<0.05) and 1.2 mg/kg (P<0.01)", "value": "dose-dependent inhibition"}, {"measurement": "Maximum platelet accumulation compared to absence of compound", "setting": "[1]; 0.6 mg/kg and 1.2 mg/kg (P<0.05)", "value": "statistically significant decrease"}, {"measurement": "Inhibition of stabilized platelet accumulation", "setting": "[1]; 0.6 mg/kg, 300 seconds after laser injury", "value": 54, "unit": "%"}, {"measurement": "Inhibition of maximal rate of platelet recruitment", "setting": "[1]; 1.2 mg/kg", "value": 56, "unit": "%"}, {"measurement": "Inhibition of maximum platelet accumulation", "setting": "[1]; 1.2 mg/kg", "value": 56, "unit": "%"}, {"measurement": "Median Stabilized/Maximum platelet accumulation", "setting": "[1]; 1.2 mg/kg", "value": 33, "unit": "%"}, {"measurement": "Inhibition of stabilized platelet accumulation", "setting": "[1]; 1.2 mg/kg, 300 seconds after laser injury", "value": 72, "unit": "%"}, {"measurement": "Median total thromboembolization, % of the maximum platelet accumulation of control thrombi", "setting": "[1]; 1.2 mg/kg, p<0.04", "value": 1.0, "unit": "%"}, {"measurement": "Thromboembolization", "setting": "[1]; after infusion of 1.2 mg/kg", "value": "significantly reduced"}, {"measurement": "Reduction of embolization", "setting": "[1]; after injection, laser-induced thrombus", "value": "greater than 80%"}, {"measurement": "Inhibition of thrombus formation", "setting": "[1]; laser-induced thrombosis, P<0.01", "value": 72, "unit": "%"}, {"measurement": "Thromboembolization", "setting": "[1]; same mouse model, dose not stated", "value": "inhibited"}, {"measurement": "Inhibition of recombinant human PDE2", "setting": "recombinant human PDE2; [3]", "value": "No significant inhibition"}, {"measurement": "Inhibition of recombinant human PDE2", "setting": "recombinant human PDE2; listed as pyridazinone compound", "value": "little inhibition"}]}]}
